This experiment deals with T1, human GPR40 (Homo sapiens, UniProt O14842).
T1 construct: expressed in transfected cells; host or cells: CHO cell line stably expressing human GPR40
As to the kind of experiment: Determination of EC50 against human GPR40: change in intracellular calcium concentration by FLIPR in CHO cells stably expressing human GPR40. It counts as cell-based. To be noted: CHO cell line stably expressing human GPR40; intracellular calcium change measured by FLIPR (Fluo3-AM); EC50 from dose-response curve; read-out: EC50 (receptor function modulating action on GPR40). On the procedure:
Determination of EC50 of the compound of the present invention against human GPR40
For determination of EC50, CHO cell line that stably expressed human GPR40 was used. Unless otherwise indicated, the CHO cell line was cultured using α-MEM medium (Invitrogen) containing 10% fetal bovine serum (Invitrogen).
The cells cultured to nearly confluent were rinsed with PBS (Invitrogen) on the previous day of the assay, peeled off with 0.05% Trypsin.EDTA solution (Invitrogen) and recovered by centrifugation. The number of the obtained cells was counted, and the cells were diluted such that 3×10^5 cells were contained per 1 mL of the medium, dispensed to a black welled 96-well plate (coster) by 100 μL per well and cultured overnight in a CO2 incubator. Various test compounds were added to the CHO cells thus prepared, and the changes in the intracellular calcium concentration were measured using FLIPR (Molecular Device). The below-mentioned pre-treatment was applied to measure changes in the intracellular calcium concentration by FLIPR.
First, an assay buffer for adding a fluorescence dye Fluo3-AM (DOJIN) to the cells, or for washing the cells immediately before FLIPR assay was prepared. To a solution of HBSS (Invitrogen, 1000 mL) added 1 M HEPES (pH 7.4, DOJIN, 20 mL) (hereinafter HBSS/HEPES solution) was added a solution (10 mL) obtained by dissolving probenecid (Sigma, 710 mg) in 1 N NaOH (5 mL), and adding and mixing an HBSS/HEPES solution (5 mL), and the resulting solution was used as an assay buffer. Next, Fluo3-AM (50 μg) was dissolved in dimethyl sulfoxide (Wako, 21 μL), and an equivalent amount of 20% pluronic acid (Molecular Probes) was added and mixed. The solution was added to the assay buffer (10.6 mL) supplemented with fetal bovine serum (105 μL) to give a fluorescence dye solution. The medium of the CHO cells inoculated to the black welled 96-well plate on the previous day of assay was removed, the fluorescence dye solution was immediately dispensed by 100 μL per well and the cells were cultured in a CO2 incubator for 1 hr to allow intake of the fluorescence dye by the cells. The cells after the culture were washed with the above-mentioned assay buffer and set on FLIPR. The test compound was diluted with dimethylsulfoxide in advance, dispensed to a polypropylene 96-well plate (sample plate) by 2 μL, and cryopreserved at −20° C. To the thawed sample plate was added an assay buffer containing 0.015% CHAPS (DOJIN) by 198 μL, and simultaneously set on FLIPR together with the cell plate. After the aforementioned pre-treatment, changes in the intracellular calcium concentration upon addition of various test compounds was measured by FLIPR. Based on the results, a dose-response curve of each test compound was formed and EC50 was calculated.

Counter-ions that a name gives are not always drawn.

T1 sequence (O14842 whole entry): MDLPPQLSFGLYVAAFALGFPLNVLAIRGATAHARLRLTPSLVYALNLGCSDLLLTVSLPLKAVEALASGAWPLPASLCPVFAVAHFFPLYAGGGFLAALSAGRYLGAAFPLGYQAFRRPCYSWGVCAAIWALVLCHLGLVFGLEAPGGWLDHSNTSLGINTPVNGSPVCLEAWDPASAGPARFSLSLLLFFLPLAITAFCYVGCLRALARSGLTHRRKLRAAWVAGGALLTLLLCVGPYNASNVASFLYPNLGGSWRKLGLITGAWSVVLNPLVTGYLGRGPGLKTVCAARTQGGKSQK

In the case of `Cc1sc(C)c(-c2cccc(COc3ccc(CCC(=O)O)cc3)c2)c1C` [Example 4, 3-(4-([3-(2,4,5-trimethyl-3-thienyl)benzyl]oxy}phenyl)propanoic acid], the 50% effective concentration (EC50) is under 0.01 µM.

Take `O=C(O)CCc1ccc(OCc2ccccc2-c2csc3ccccc23)cc1` [Example 10, 3-(4-{[2-(1-benzothiophen-3-yl)benzyl]oxy}phenyl)propanoic acid]: the EC50 is under 1 µM.

In the case of `O=C(O)CCc1ccc(OCc2cccc(-c3ccc4c(ccn4Cc4ccccc4)c3)c2)cc1` [Example 20, 3-(4-([3-(1-benzyl-1H-indol-5-yl)benzyl]oxy}phenyl)propanoic acid], the EC50 is under 0.1 µM.

With `Cc1cc2ccccc2n1-c1cccc(COc2ccc(CCC(=O)O)cc2)c1` [Example 24, 3-(4-{[3-(2-methyl-1H-indol-1-yl)benzyl]oxy}phenyl)propanoic acid], the 50% effective concentration (EC50) is under 0.01 µM.

Turning to `O=C(O)CCc1ccc(OCc2cccc(N3CCOC(c4ccccc4)C3)c2)cc1` (centres unmarked) [Example 29, 3-(4-{[3-(2-phenylmorpholin-4-yl)benzyl]oxy}phenyl)propanoic acid], the EC50 was under 0.1 µM.

With `CC1CCc2ccccc2N1c1cccc(COc2ccc(CCC(=O)O)cc2)c1` (centres unmarked) [Example 40, 3-(4-{[3-(2-methyl-3,4-dihydroquinolin-1 (2H)-yl)benzyl]oxy}phenyl)propanoic acid], the EC50 was under 0.01 µM.

For `O=C(O)CCc1ccc(OCc2ccc(Cn3c(-c4ccccc4)cc4ccccc43)cc2)cc1` [Example 45, 3-[4-({4-[(2-phenyl-1H-indol-1-yl)methyl]benzyl}oxy)phenyl]propanoic acid], the EC50 was under 0.1 µM.

Regarding `O=C(O)CCc1ccc(OCc2ccc(Cn3ccnc3-c3ccccc3)cc2)cc1` [Example 56, 3-[4-([4-[(2-phenyl-1H-imidazol-1-yl)methyl]benzyl]oxy)phenyl]propanoic acid], the EC50 was under 1 µM.

Take `CC(C)COc1ccc(COc2ccc(CCC(=O)O)cc2)cc1Cn1c(-c2ccccc2)cc2ccccc21` [Example 60, 3-[4-({4-isobutoxy-3-[(2-phenyl-1H-indol-1-yl)methyl]benzyl)oxy)phenyl]propanoic acid]: the EC50 was under 0.1 µM.

`O=C(O)CCc1ccc(OCc2ccc(Cn3nc(-c4ccc(C(F)(F)F)cc4)cc3CCc3ccccc3)cc2)cc1` [Example 65, 3-(4-{[4-({5-(2-phenylethyl)-3-[4-(trifluoromethyl)phenyl]-1H-pyrazol-1-yl}methyl)benzyl]oxy}phenyl)propanoic acid]: the EC50 was under 1 µM.

On to `CC(C)COc1ccc(COc2ccc(CCC(=O)O)cc2)cc1CN1c2ccccc2CCC1C` (centres unmarked) [Example 111, 3-[4-({4-isobutoxy-3-[(2-methyl-3,4-dihydroquinolin-1 (2H)-yl)methyl]benzyl}oxy)phenyl]propanoic acid], for which the 50% effective concentration (EC50) is under 1 µM.

`Cc1cc(-c2ccccc2)n(Cc2ccc(COc3ccc(CCC(=O)O)cc3)cc2)n1` [Example 112, 3-[4-([4-[(3-methyl-5-phenyl-1H-pyrazol-1-yl)methyl]benzyl}oxy)phenyl]propanoic acid]: the EC50 was under 0.1 µM.

With `CCOCCn1c(-c2ccccc2)c(-c2cccc(COc3ccc(CCC(=O)O)c(F)c3)c2)c2ccccc21` [Example 118, 3-[4-({3-[1-(2-ethoxyethyl)-2-phenyl-1H-indol-3-yl]benzyl}oxy)-2-fluorophenyl]propanoic acid], the EC50 was under 0.1 µM.

For the compound `CC(C)(C)c1cc(COc2ccccc2)n(Cc2ccc(COc3ccc(CCC(=O)O)c(F)c3)cc2)n1` [Example 131, 3-{4-[(4-{[3-tert-butyl-5-(phenoxymethyl)-1H-pyrazol-1-yl]methyl}benzyl)oxy]-2-fluorophenyl}propanoic acid calcium salt], the concentration giving a half-maximal response (EC50) was under 0.1 µM.

For `CC(C)(C)c1cc(OCc2ccccc2)n(Cc2ccc(COc3ccc(CCC(=O)O)c(F)c3)cc2)n1` [Example 133, 3-{4-[(4-([5-(benzyloxy)-3-tert-butyl-1H-pyrazol-1-yl]methyl)benzyl)oxy]-2-fluorophenyl}propanoic acid calcium salt], the EC50 is under 0.1 µM.

For `Cc1cccc(COc2cc(C(C)(C)C)nn2Cc2ccc(COc3ccc(CCC(=O)O)c(F)c3)cc2)n1` [Example 137, 3-(4-{[4-({3-tert-butyl-5-[(6-methylpyridin-2-yl)methoxy]-1H-pyrazol-1-yl}methyl)benzyl]oxy}-2-fluorophenyl)propanoic acid calcium salt], the concentration for a half-maximal effect (EC50) was under 0.1 µM.

Take `CC(C)(C)c1cc(-c2ccccc2)n(Cc2ccc(COc3ccc(CCC(=O)O)c(F)c3)cc2)n1` [Example 141, 3-[4-({4-[(3-tert-butyl-5-phenyl-1H-pyrazol-1-yl)methyl]benzyl)oxy)-2-fluorophenyl]propanoic acid]: the EC50 was under 0.1 µM.

The term EC50 denotes the concentration needed to bring the measured effect to its halfway point.
